{"source": "patent US20020155422A1", "about": "“Methods for analyzing dynamic changes in cellular informatics and uses therefor” (priority 2000, published 2002)", "tested_on": "HL-60 cells", "test": "Gene expression profiling (Resgen microarray filters) of HL-60 cells stimulated to differentiate into neutrophils, time course", "type": "cell-based, human", "conditions": "for Normalized expression level of gene W95428 / Normalized expression level of gene W96205 / Normalized expression level of gene W96450 / Normalized expression level of gene W96463: HL-60 cells, retinoic acid induced switch, normalized to T = 0 level", "excerpt": "Given the value of understanding the genetic basis of the switch between different hematopoietic stem cell lineages, a well-characterized human pluripotent precursor cell line—the HL 60 promyeloid leukemia cell line—provides a useful model system. HL 60 precursors cells can be induced to switch to granulocytes, monocytes, or macrophages based on alterations in experimental conditions. […] Established molecular methods (e.g., immunocytochemistry, FACS cell sorting, SDS-PAGE, Western blots, Northern blots, or other biochemical or molecular biological techniques) can be used to identify cells that have switched, between different phenotypes. These methods can be used to identify experimental conditions necessary to optimally acquire the baseline data for analysis according to methods of the invention, including information on the dose-response for the transition between different cell states and the time required for a stimulated cell to undergo the transition and reach a new steady state. Additional insight into the molecules involved in cell regulation may be gained by carrying out analysis of cells under various experimental conditions that induce forward and reverse transitions between the same two states by adding or removing a common stimulus as well as by analysis of convergent transition processes that involve switching to a common cell state using different stimuli and divergent transition process that involve switching from one state to two different attractor states using different perturbations. […] The latter would lead to a perturbation of the attractor state to various degrees with subsequent relaxation back to the same attractor along distinct trajectories.\nCell state transitions that may be studied and characterized in the HL60 model system include: A) induction of a transition from HL60 precursor to a granulocyteby treatment with DMSO; B) induction of a reverse transition from granulocyte to HL60 by removing DMSO; C) induction of a transition from HL60 precursor to granulocyte using all-trans-retinoid acid; D) induction of a reverse transition from granulocytes to HL60 precursors by removing all-trans-retinoid acid; E) induction of a transition from HL60 precursors to a monocyte(s) by addition of NaButyrate; and F) induction of a transition from HL60 precursors to a macrophage(s) by addition of TPA. This approach was used to analyze two convergent processes of HL-60 cell transition from precursor to neutrophil states after stimulation with DMSO and retinoic acid (transitions A and C, respectively). In this experiment, only a relatively low number of genes (<300) were analyzed over 7 time points.\nHL-60 cells (1.5×10^6 cells/ml) were stimulated in parallel cultures to differentiate into neutrophils along two different but convergent paths by treatment with DMSO (S1 path) or retinoic acid (S2 path). At each time point, RNA was harvested from both cultures using RNeasy extraction kit (Qiagen) and subjected to gene expression profiling using Resgen microarray filters from Research Genetics/Invitrogen (the gene filter contains 5000 human cDNAs that were pre-spotted on a 5×7 cm nylon membrane and then hybridized with radioactively labeled cDNA made from total cellular RNA). […] Expression levels for each gene were normalized to the 0 time point level for that gene (untreated reference). Genes with expression levels below a 4 fold change relative to the 0 reference were excluded from the analysis. In this analysis, an inter-trajectory distance representation was used to compare different trajectories with the cell state space and to identify common paths in cell state transition processes. For each time point, a state vector of length 281 genes was defined for each of the two processes S1(t) and S2(t). […]"}
{"molecule": "C[S+](C)[O-]", "note": "[DMSO]", "values": [{"measurement": "inter-trajectory distance DT(t) (squared Euclidean distance between state vectors S1(t), S2(t))", "setting": "HL-60 cells 1.5×10^6 cells/ml, DMSO (S1 path) versus retinoic acid (S2 path), 281 genes, 7 time points, FIG. 7", "value": "converge on the same differentiation state"}]}
{"molecule": "CC1=C(/C=C/C(C)=C/C=C/C(C)=C/C(=O)O)C(C)(C)CCC1", "note": "[retinoic acid]", "values": [{"measurement": "Normalized expression level of gene W95428", "setting": "2 hours", "value": 1.049}, {"measurement": "Normalized expression level of gene W96205", "setting": "2 hours", "value": 0.9014}, {"measurement": "Normalized expression level of gene W96450", "setting": "2 hours", "value": 0.8141}, {"measurement": "Normalized expression level of gene W96463", "setting": "2 hours", "value": 0.9136}, {"measurement": "Normalized expression level of gene W95428", "setting": "Day 2", "value": 1.003}, {"measurement": "Normalized expression level of gene W96205", "setting": "Day 2", "value": 0.931}, {"measurement": "Normalized expression level of gene W96450", "setting": "Day 2", "value": 0.8573}, {"measurement": "Normalized expression level of gene W96463", "setting": "Day 2", "value": 0.9058}, {"measurement": "Normalized expression level of gene W95428", "setting": "Day 3", "value": 0.9532}, {"measurement": "Normalized expression level of gene W96205", "setting": "Day 3", "value": 0.9937}, {"measurement": "Normalized expression level of gene W96450", "setting": "Day 3", "value": 0.6712}, {"measurement": "Normalized expression level of gene W96463", "setting": "Day 3", "value": 0.8109}, {"measurement": "Normalized expression level of gene W95428", "setting": "Day 4", "value": 0.9982}, {"measurement": "Normalized expression level of gene W96205", "setting": "Day 4", "value": 0.9089}, {"measurement": "Normalized expression level of gene W96450", "setting": "Day 4", "value": 0.8387}, {"measurement": "Normalized expression level of gene W96463", "setting": "Day 4", "value": 0.8458}, {"measurement": "Normalized expression level of gene W95428", "setting": "Day 5", "value": 0.9605}, {"measurement": "Normalized expression level of gene W96205", "setting": "Day 5", "value": 0.9604}, {"measurement": "Normalized expression level of gene W96450", "setting": "Day 5", "value": 1.17}, {"measurement": "Normalized expression level of gene W96463", "setting": "Day 5", "value": 0.841}, {"measurement": "Normalized expression level of gene W95428", "setting": "Day 7", "value": 0.954}, {"measurement": "Normalized expression level of gene W96205", "setting": "Day 7", "value": 0.9732}, {"measurement": "Normalized expression level of gene W96450", "setting": "Day 7", "value": 1.087}, {"measurement": "Normalized expression level of gene W96463", "setting": "Day 7", "value": 0.8014}]}
